Values quoted from earlier work as cited in patent US4127530A, “Novel heneicosapeptides, intermediates therefor and pharmaceutical compositions and methods employing said heneicosapeptides” (priority 1977, dated 1978).

Assays:
[1] = injected directly into the brain of the rat
[2] = tested on: partially purified brain opiate receptor sites; conditions: for opioid activity in binding to partially purified brain opiate receptor sites: fragments isolated from the pituitary

Substance	analgesic activity [1]	binding to partially purified brain opiate receptor sites ([2]; natural peptide)	opioid activity in binding to partially purified brain opiate receptor sites [2]
H-Tyr-Gly-Gly-Phe-Met-OH [methionine enkephalin]	weak analgesic agent of short duration	binds stereo-specifically	–
α-endorphin	–	–	potent opioid activity
β-endorphin: β-lipotropin fragment 61-91	–	–	potent opioid activity
γ-endorphin	–	–	potent opioid activity
